The subject of the assay is Glucokinase known as hexokinase IV (human GK isoform 1, pancreas form and human GK isoform 2, liver form). The assay can be described thus: Glucokinase enzymatic activity assay (G6PDH-coupled, NADH absorbance at 340 nm). The assay is classed as biochemical. Conditions: 5 mM glucose, 1 mM ATP, 37 nM GK, 10 min at room temperature. The procedure: Glucokinase known as hexokinase IV (human GK isoform 1, pancreas form and human GK isoform 2, liver form) was cloned into an expression vector pET15 fx (Novagen Co.), transformed to E. coli BL21 (DE3) (Invitrogen Co.) strain, expressed, and purified using a nickel column. Then, the glucokinase obtained from dialysis was used in the following assay.
Glucokinase assay was performed by measuring absorbance according to the conventional manner. Briefly speaking, glucokinase converts the substrate glucose to glucose-6-phosphate under certain conditions, and glucose-6-phosphate dehydrogenase irreversibly converts glucose-6-phosphate to gluconate-6-phosphate. During this procedure, NADH is formed, and its absorbance is measured to calculate the enzymatic activity.
In the measurement of the enzymatic activity, each compound was diluted by two-fold from the maximum to the minimum concentrations, and 2 μl of each solution was added to 96 well UV plate (BD bioscience). 60 μl of the first mixture (final concentrations 25 mM Hepes, 25 mM KCl, 2 mM MgCl2, 1 mM DTT) was added, and thoroughly mixed. 38 μl of the enzyme mixture (final concentrations 1 mM ATP, 1 mM NAD, 5 mM glucose, 0.85U G6PDH, 37 nM GK) was added (final volume 100 μl), and the mixture was reacted for 10 min at room temperature. The absorbance of NADH was measured at 340 nm using a UV spectrometer (Molecular Device).
The enzyme activating abilities of the compounds according to the present invention are represented as AC1.5 (the compound concentration at which the enzymatic activity is increased by 1.5 times, nM), which is in the range of 0.001 uM to 30 uM or less, preferably 0.001 uM to 10 uM, more preferably 0.001 uM to 1 uM.
In the case of `OCC[C@@H]1CSC(c2cc3cc(Br)cc(NC4CCCC4)c3[nH]2)=N1` [Example 34, 2-[(R)-2-(5-bromo-7-cyclopentylamino-1H-indol-2-yl)-4,5-dihydro-1,3-thiazol-4-yl]-ethanol], the “AC1.5 (the compound concentration at which the enzymatic activity is increased by 1.5 times)” value is 11 nM.

With `OCCC[C@@H]1CSC(c2cc3cc(Cl)cc(NC4CCCC4)c3[nH]2)=N1` [Example 150, 3-[(R)-2-(5-chloro-7-cyclopentylamino-1H-indol-2-yl)-4,5-dihydro-thiazol-4-yl]-propan-1-ol], the “AC1.5 (the compound concentration at which the enzymatic activity is increased by 1.5 times)” value is reported as 10 nM.

As for `OCC[C@@H]1CSC(c2cc3cc(F)cc(NC4CCCC4)c3[nH]2)=N1` [Example 39, 2-[(R)-2-(7-cyclopentylamino-5-fluoro-1H-indol-2-yl)-4,5-dihydro-thiazol-4-yl]-ethanol], the “AC1.5 (the compound concentration at which the enzymatic activity is increased by 1.5 times)” value turned out to be 6 nM.

As for `O=C(O)CC[C@@H]1CSC(c2cc3cc(Cl)cc(NC4CCCC4)c3[nH]2)=N1` [Example 149, 3-[(R)-2-(5-chloro-7-cyclopentylamino-1H-indol-2-yl)-4,5-dihydro-thiazol-4-yl]-propionic acid], the “AC1.5 (the compound concentration at which the enzymatic activity is increased by 1.5 times)” value stood at 12 nM.

With `CC(=O)N1CCN(CC[C@@H]2CSC(c3cc4cc(CS(C)(=O)=O)cc(NC5CCCC5)c4[nH]3)=N2)CC1` [Example 72, 1-(4-{2-[(R)-2-(7-cyclopentylamino-5-methanesulfonylmethyl-1H-indol-2-yl)-4,5-dihydro-thiazol-4-yl]-ethyl}-piperazin-1-yl)-ethanone], the “AC1.5 (the compound concentration at which the enzymatic activity is increased by 1.5 times)” value is given as 51 nM.

Consider `CS(=O)(=O)CC[C@@H]1CSC(c2cc3cc(Cl)cc(NC4CCCC4)c3[nH]2)=N1` [Example 108, {5-chloro-2-[(R)-4-(2-methanesulfonyl-ethyl)-4,5-dihydro-thiazol-2-yl]-1H-indol-7-yl}-cyclopentyl-amine], for which the “AC1.5 (the compound concentration at which the enzymatic activity is increased by 1.5 times)” value is given as 15 nM.

As for `O=C(O)COC[C@@H]1CSC(c2cc3cc(F)cc(NC4CCCC4)c3[nH]2)=N1` [Example 171, [(R)-2-(7-cyclopentylamino-5-fluoro-1H-indol-2-yl)-4,5-dihydro-thiazol-4-ylmethoxy]-acetic acid], the “AC1.5 (the compound concentration at which the enzymatic activity is increased by 1.5 times)” value was 23 nM.

On to `COc1cc(NC2CCCC2)c2[nH]c(C3=N[C@H](CCC(=O)O)CS3)cc2c1` [Example 165, 3-[(R)-2-(7-cyclopentylamino-5-methoxy-1H-indol-2-yl)-4,5-dihydro-thiazol-4-yl]-propionic acid], for which the “AC1.5 (the compound concentration at which the enzymatic activity is increased by 1.5 times)” value is listed as 12 nM.

Turning to `CN(C)CC[C@@H]1CSC(c2cc3cc(Cl)cc(NC4CCCC4)c3[nH]2)=N1` [Example 94, {5-chloro-2-[(R)-4-(2-dimethylamino-ethyl)-4,5-dihydro-thiazol-2-yl]-1H-indol-7-yl}-cyclopentyl-amine], the “AC1.5 (the compound concentration at which the enzymatic activity is increased by 1.5 times)” value is recorded as 15 nM.

For `O=C(CC[C@@H]1CSC(c2cc3cc(Cl)cc(NC4CCCC4)c3[nH]2)=N1)NCCN1CCOCC1` [Example 153, 3-[(R)-2-(5-chloro-7-cyclopentylamino-1H-indol-2-yl)-4,5-dihydro-thiazol-4-yl]-N-(2-morpholin-4-yl-ethyl)-propionamide], the “AC1.5 (the compound concentration at which the enzymatic activity is increased by 1.5 times)” value is recorded as 12 nM.

In the case of `O=S1(=O)CCN(CC[C@@H]2CSC(c3cc4cc(F)cc(NC5CCCC5)c4[nH]3)=N2)CC1` [Example 129, cyclopentyl-(2-{(R)-4-[2-(1,1-dioxo-thiomorpholin-4-yl)-ethyl]-4,5-dihydro-thiazol-2-yl}-5-fluoro-1H-indol-7-yl)-amine], the “AC1.5 (the compound concentration at which the enzymatic activity is increased by 1.5 times)” value stood at 67 nM.

As to `CCOC(=O)CC[C@@H]1CSC(c2cc3cc(Cl)cc(NC4CCCC4)c3[nH]2)=N1` [Example 148, 3-[(R)-2-(5-chloro-7-cyclopentylamino-1H-indol-2-yl)-4,5-dihydro-thiazol-4-yl]propionic acid ethyl ester], the “AC1.5 (the compound concentration at which the enzymatic activity is increased by 1.5 times)” value is given as 12 nM.

On to `O=C(C[C@@H]1CSC(c2cc3cc(Cl)cc(NC4CCCC4)c3[nH]2)=N1)N1CCOCC1` [Example 73, 2-[(R)-2-(5-chloro-7-cyclopentylamino-1H-indol-2-yl)-4,5-dihydro-thiazol-4-yl]-1-morpholin-4-yl-ethanone], for which the “AC1.5 (the compound concentration at which the enzymatic activity is increased by 1.5 times)” value worked out at 25 nM.

On to `CS(=O)(=O)Cc1cc(NC2CCCC2)c2[nH]c(C3=N[C@H](CCO)CS3)cc2c1` [Example 70, 2-[(R)-2-(7-cyclopentylamino-5-methanesulfonylmethyl-1H-indol-2-yl)-4,5-dihydro-thiazol-4-yl]-ethanol], for which the “AC1.5 (the compound concentration at which the enzymatic activity is increased by 1.5 times)” value was determined as 32 nM.

With `CS(=O)(=O)N1CCC(Nc2cccc3cc(C4=N[C@H](CO)CS4)[nH]c23)C1` (stereo partly drawn) [Example 4, {(R)-2-[7-(1-methanesulfonyl-pyrrolidin-3-ylamino)-1H-indol-2-yl]-4,5-dihydro-thiazol-4-yl}-methanol], the “AC1.5 (the compound concentration at which the enzymatic activity is increased by 1.5 times)” value was 217 nM.

Turning to `COC(=O)C[C@@H]1CSC(c2cc3cc(COc4ccccc4)cc(NC4CCCC4)c3[nH]2)=N1` [Example 65, [(R)-2-(7-cyclopentylamino-5-phenoxymethyl-1H-indol-2-yl)-4,5-dihydro-thiazol-4-yl]-acetic acid methyl ester], the “AC1.5 (the compound concentration at which the enzymatic activity is increased by 1.5 times)” value is on record as 23 nM.

With `CCOC(=O)C[C@@H]1CSC(c2cc3cc(Cl)cc(NC4CCCC4)c3[nH]2)=N1` [Example 28, [(R)-2-(5-chloro-7-cyclopentylamino-1H-indol-2-yl)-4,5-dihydro-thiazol-4-yl]acetic acid ethyl ester], the “AC1.5 (the compound concentration at which the enzymatic activity is increased by 1.5 times)” value is on record as 8 nM.

On to `O=C(O)C[C@@H]1CSC(c2cc3cc(Oc4ccccc4)cc(NC4CCOCC4)c3[nH]2)=N1` [Example 55, {(R)-2-[5-phenoxy-7-(tetrahydro-pyran-4-ylamino)-1H-indol-2-yl]-4,5-dihydro-thiazol-4-yl}-acetic acid], for which the “AC1.5 (the compound concentration at which the enzymatic activity is increased by 1.5 times)” value came out at 29 nM.

Take `OC[C@@H]1CSC(c2cc3cc(F)cc(NC4CCOCC4)c3[nH]2)=N1` [Example 6, {(R)-2-[5-fluoro-7-(tetrahydro-pyran-4-ylamino)-1H-indol-2-yl]-4,5-dihydro-thiazol-4-yl}-methanol]: the “AC1.5 (the compound concentration at which the enzymatic activity is increased by 1.5 times)” value is 31 nM.

As for `O=C1CN(CC[C@@H]2CSC(c3cc4cc(F)cc(NC5CCCC5)c4[nH]3)=N2)CCN1` [Example 130, 4-{2-[(R)-2-(7-cyclopentylamino-5-fluoro-1H-indol-2-yl)-4,5-dihydro-thiazol-4-yl]-ethyl}-piperazin-2-one], the “AC1.5 (the compound concentration at which the enzymatic activity is increased by 1.5 times)” value is on record as 14 nM.

As for `COC(=O)C[C@@H]1CSC(c2cc3cc(Oc4cccnc4)cc(NC4CCCC4)c3[nH]2)=N1` [Example 56, {(R)-2-[7-cyclopentylamino-5-(pyridin-3-yloxy)-1H-indol-2-yl]-4,5-dihydro-thiazol-4-yl}-acetic acid methyl ester], the “AC1.5 (the compound concentration at which the enzymatic activity is increased by 1.5 times)” value was determined as 17 nM.

Regarding `O=C(C[C@@H]1CSC(c2cc3cc(Cl)cc(NC4CCCC4)c3[nH]2)=N1)N1CCC(O)C1` (stereo partly drawn) [Example 80, 2-[(R)-2-(5-chloro-7-cyclopentylamino-1H-indol-2-yl)-4,5-dihydro-thiazol-4-yl]-1-(3-hydroxy-pyrrolidin-1-yl)-ethanone], the “AC1.5 (the compound concentration at which the enzymatic activity is increased by 1.5 times)” value came out at 21 nM.

For `CS(=O)(=O)Cc1cc(NC2CCCC2)c2[nH]c(C3=N[C@H](CCN4CCOCC4)CS3)cc2c1` [Example 71, cyclopentyl-{5-methanesulfonylmethyl-2-[(R)-4-(2-morpholin-4-yl-ethyl)-4,5-dihydro-thiazol-2-yl]-1H-indol-7-yl}-amine], the “AC1.5 (the compound concentration at which the enzymatic activity is increased by 1.5 times)” value stood at 31 nM.

For the molecule `CCOC(=O)C[C@@H]1CSC(c2cc3cc(OC)cc(NC4CCCC4)c3[nH]2)=N1` [Example 49, [(R)-2-(7-cyclopentylamino-5-methoxy-1H-indol-2-yl)-4,5-dihydro-thiazol-4-yl]-acetic acid ethyl ester], the “AC1.5 (the compound concentration at which the enzymatic activity is increased by 1.5 times)” value is given as 35 nM.

Take `O=C1CCCN1CC[C@@H]1CSC(c2cc3cc(Cl)cc(NC4CCCC4)c3[nH]2)=N1` [Example 111, 1-{2-[(R)-2-(5-chloro-7-cyclopentylamino-1H-indol-2-yl)-4,5-dihydro-thiazol-4-yl]-ethyl}-pyrrolidin-2-one]: the “AC1.5 (the compound concentration at which the enzymatic activity is increased by 1.5 times)” value was found to be 11 nM.

With `OC[C@@H]1CSC(c2cc3cc(Cn4cccn4)cc(NC4CCCC4)c3[nH]2)=N1` [Example 21, [(R)-2-[7-cyclopentylamino-5-pyrazol-1-ylmethyl-1H-indol-2-yl]-4,5-dihydro-thiazol-4-yl}-methanol], the “AC1.5 (the compound concentration at which the enzymatic activity is increased by 1.5 times)” value is reported as 16 nM.

Values taken from US8309586B2, “Glucokinase activators and pharmaceutical compositions containing the same as an active ingredient” (LG Life Sciences Ltd., priority 2007, dated 2012).
